Results taken from patent US20110142866A1, “PEPTIDE ANALOGUES AND CONJUGATES THEREOF” (Eldrug S.A., priority 2007, published 2011).

How the values were obtained:
[1] = test system: IFN-γ secretion by T cells; experiment: IFN-γ ELISpot of spleen cells from immunized mice; assay type: in vivo, SJL/J mice; set-up: key to IFN-γ: −: negative; +/−: very weak; +: weak; ++: moderate; +++: strong
Method: Female 6-8 week old SJL/J mice used in all experiments, were purchased from Walter and Eliza Hall Institute (VIC Australia) and housed at the Biological Research Laboratory at Burnet Institute at Austin, Heidelberg, Australia. SJL/J mice were immunized twice on days 0, 14 intradermally (base of tail) with 50 μg MBP83-99 peptide analogue-KLH-reduced mannan.
ELISpot analyses specific T cell responses to antigens by detecting the secretion of specific cytokines. Spleen cells from immunized SJL/J mice were isolated 14 days after immunization and assessed by ELISpot for IFN-γ, IL-4 or IL-10 secretion by T cells. IFN-γ ELISpot assay was performed on MultiScreen-IP Filter Plate (MAIP S4510) with hydrophobic PVDF filters (Millipore, UK) while IL-4 and IL-10 ELISpot was performed on MultiScreen-HA Filter Plate (MAHA S4510) with mixed cellulose esters filters (Millipore, UK). MAIP S4510 plates were pre-wet with 50 μl of 70% ethanol, washed 5 times with 200 μl sterile PBS and coated with 70 μl of 5 μg/ml anti-IFN-γ capture antibody, AN18 (Mabtech, Australia) in PBS and left to incubate at 4° C. O/N. While 70 μl of 5 μg/ml anti-IL-4 and anti-IL-10 capture antibody (Mabtech, Australia) was added directly to MAHA S4510 plates and incubated at 4° C. O/N without 70% ethanol treatment. Following 5 washes with PBS, plates were blocked by adding 200 μl of culture media (supplemented with 2.5% FCS) and incubated for 2 hours at 37° C. The blocking media was discarded and 10 μg/ml recall peptides (MBP83-99 peptide analogues not conjugated to KLH-reduced mannan) were added into each defined well. Con A (1.0 μg/ml; IL-4 and IFN-γ) or LPS (1.0 μg/ml; IL-10) were used as an internal positive controls and no peptide was used as negative control. Triplicate wells were set up for each condition. 5×10^5 spleen cells in 100 μl culture media were seeded into each well and incubated for 18 hours for IFN-γ, 24 hours for IL-4 and 48 hours for IL-10 at 37° C. Plates were washed 5 times PBS/0.05% Tween 20 and 5 times PBS and incubated for 2 hours at RT with anti-murine IFN-γ, IL-4 or IL-10 monoclonal antibody-biotin. Plates were washed and streptavidin-ALP was added at 1.0 μg/ml and incubated for 2.0 hours at RT. Spots of activity were detected using a colorimetric AP kit (Biorad, Hercules, Calif. USA) and counted using an AID ELISpot plate reader (Autoimmun Diagnostika GmbH, Germany). Data are presented as mean spot forming units (sfu) per 0.5×10^6 cells +/−standard error of the mean (SEM).
MBP87-99, [R^91, A^96]MBP87-99 or [A^91, A^96]MBP87-99 peptides were dissolved in PBS and emulsified in an equal volume of complete Freund's adjuvant (CFA) which contained 1.0 mg/ml of heat killed Mycobacterium tuberculosis H37RA (Sigma, Victoria, Australia). SJL/J mice were given one subcutaneous injection containing 50 μg peptide into the base of tail.
SJL/J mice were immunized twice on days 0 and 14 intradermally (base of tail) with 50 μg MBP87-99-KLH-reduced mannan, [R^91, A^96]MBP87-99-KLH-reduced mannan or [A^91, A^96]MBP87-99-KLH-reduced mannan conjugates.
ELISpot detects specific T cell responses to antigens by measuring the secretion of specific cytokines from individual cells. Spleen cells from immunized SJL/J mice were isolated 28 days after CFA immunization or 14 days after the last immunization with reduced mannan-peptides and assessed by ELISpot for IFN-γ and IL-4 secretion by T cells. IFN-γ ELISpot assay was performed on MultiScreen-IP Filter Plate (MAIP S4510) with hydrophobic PVDF filters (Millipore, UK), while IL-4 ELISpot assays were performed on MultiScreen-HA Filter Plate (MAHA S4510) with mixed cellulose esters filters (Millipore, UK). MAIP S4510 plates were pre-weted with 50 μl of 70% ethanol, washed 5 times with 200 μl of sterile phosphate-buffered saline (PBS) and coated with 70 μl of 5 μg/ml anti-IFN-γ capture antibody, AN18 (Mabtech, Australia) in PBS and incubated O/N at 4° C. […]

[2] = test system: spleen cells; experiment: T cell proliferation assay ([3H]-thymidine uptake); assay type: in vivo, SJL/J mice; set-up: key to Proliferation / Proliferation cross reaction: −: negative; +/−: very weak; +: weak; ++: moderate; +++: strong; settings: for Proliferation cross reaction: Table 3, complete Freund's adjuvant; for proliferation of MBP83-99 specific T cells to recall analogue (in words): mice immunized with agonist MBP83-99 in CFA; for Proliferation: Table 2, peptide analogues conjugated to reduced mannan-KLH
Method: Spleen cells from immunized SJL/J mice were isolated 14 days after immunization and assessed by T cell proliferation assay. 1×10^5 spleen cells in 100 μl culture media were seeded into 96 U-bottom plates and incubated for 1-6 days at 37° C. in the presence of recall peptide (10 μg/ml), ConA (positive control) or no peptide (negative control). Proliferation was assessed by adding 1 μCi of [^3H]-thymidine per well to one plate per time point (days 1-6). Cells were incubated for a further 6 h before harvesting onto glass fiber filters. [^3H] uptake was measured using a β-scintillation counter (Top Count Gamma Counter, Packard, USA).
Proliferation assays were used to detect the level of antigen specific T cells by measuring the [3H]thymidine uptake of T cells proliferating in the presence of peptides on days 1-6. Spleen cells from mice immunized with linear agonist MBP83-99 peptide were isolated 28 days after immunization and assessed by T cell proliferation assay. T cells proliferated to MBP83-99 peptide, reaching a peak by day 5 of up to 25 000 cpm (FIG. 9D). In addition, the MBP83-99 specific T cells cross-reacted with linear [A^91]MBP83-99 and mutant cyclo(83-99)[A^91]MBP83-99 peptide analogues (FIG. 9D). The cyclo(83-99)[A^91]MBP83-99 peptide proliferated similarly to linear [A^91]MBP83-99 peptide, reaching a peak on day 5 (FIG. 9D). ConA (internal control) yielded proliferation of more than 75 000 cpm peaked on day 2 and was excluded from the figures, and no peptide (cells alone) was used as background negative control.

[3] = 50 μg peptide conjugated to reduced mannan, two intradermal injections, spleen cells 14 days post-immunization
[4] = 50 μg peptide emulsified in CFA, one injection, spleen cells 28 days
[5] = Table 3, peptide analogues emulsified in complete Freund's adjuvant
[6] = Table 2, peptide analogues conjugated to reduced mannan-KLH

| Molecule | IFN-γ secreting T cells (in words) [1, 3] | IFN-γ secreting T cells (in words) [1, 4] | IFN-γ [1, 5] | IFN-γ [1, 6] | Proliferation cross reaction [2] | proliferation of MBP83-99 specific T cells to recall analogue (in words) [2] | Proliferation [2] | T cell proliferation to recall peptide (in words) ([2]; immunization with reduced mannan-KLH-peptide) | T cell proliferation, peak ([2]; mice immunized with linear MBP83-99 (CFA), spleen cells 28 days, recall peptide, peak by day 5) |
| --- | --- | --- | --- | --- | --- | --- | --- | --- | --- |
| CC[C@H](C)[C@@H]1NC(=O)[C@H](CC(N)=O)NC(=O)[C@H](CCCCN)NC(=O)[C@H](Cc2ccccc2)NC(=O)[C@H](Cc2ccccc2)NC(=O)[C@H](Cc2c[nH]cn2)NC(=O)[C@H](C(C)C)NC(=O)[C@H](C(C)C)NC(=O)[C@@H]2CCCN2C(=O)[C@H](CC(N)=O)NC(=O)[C@H](CCC(=O)O)NC(=O)[C@@H]2CCCN2C(=O)[C@H]([C@@H](C)O)NC(=O)[C@H](CCCNC(=N)N)NC(=O)[C@@H]2CCCN2C(=O)[C@H]([C@@H](C)O)NC(=O)[C@H](C(C)C)NC1=O [cyclo(83-99)MBP83-99, cyclo(83-99)E N P V V H F F K N I V T P R T P] | weak and generated IFN-γ secreting T cells | induced IFN-γ responses | + |  |  |  |  |  |  |
| E N P V V H F F A N I V T P R T P (ENPVVHFFANIVTPRTP) [[A^91]MBP83-99] | negative | lower | − | − | ++ | cross-reacted |  |  |  |
| E N P V V H F F E N I V T P R T P (ENPVVHFFENIVTPRTP) [[E^91]MBP83-99] |  |  | − | − | ++ |  |  |  |  |
| E N P V V H F F F N I V T P R T P (ENPVVHFFFNIVTPRTP) [[F^91]MBP83-99] | weak and induced |  | ++ | ++ | ++ |  | +++ | strong |  |
| E N P V V H F F K N I V T P R T P (ENPVVHFFKNIVTPRTP) [MBP83-99, reference compound] | weak and generated IFN-γ secreting T cells and high levels | induced IFN-γ responses | + | ++ |  |  |  |  | up to 25 000 cpm |
| E N P V V H F F R N I V T A R T P (ENPVVHFFRNIVTARTP) [[R^91, A^96]MBP83-99] | no IFN-γ |  | ++ | − | +/− | weakly proliferated |  |  |  |
| E N P V V H F F Y N I V T P R T P (ENPVVHFFYNIVTPRTP) [[Y^91]MBP83-99] |  |  | − | − | +/− | weakly proliferated | +/− |  |  |
| cyclo(83-99)E N P V V H F F A N I V T P R T P (ENPVVHFFANIVTPRTP; cyclised or stapled) [cyclo(83-99)[A^91]MBP83-99] | negative | lower | − | − | ++ | cross-reacted |  |  |  |
